Results as given in patent US10829520B2, “Beta-hairpin peptidomimetics” (POLYPHOR AG, priority 2015, dated 2020).
Where a SMILES comes first, the peptide text is derived from it. Bridges are numbered along the chain shown (N, C = ends). [ ]: non-standard residue; d: D form. NMeW = CN[C@@H](Cc1c[nH]c2ccccc12)C(=O)O; Tle = CC(C)(C)[C@H](N)C(=O)O; dDab = NCC[C@@H](N)C(=O)O; Nle = CCCC[C@H](N)C(=O)O; Orn = NCCC[C@H](N)C(=O)O; Dab = NCC[C@H](N)C(=O)O; Dap = NC[C@H](N)C(=O)O; Sar = CNCC(=O)O

Legend:
Format in all cases: cell-based
[1] = test system: Acinetobacter baumannii 872842; settings: 872842
[2] = test system: Acinetobacter baumannii DSM 30008; settings: DSM 30008
Summary of the method: (§1)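 Read-out is the minimal inhibitory concentration in μg/mL, taken as the lowest peptide level without visible growth after 18-20 h at 35° C. Testing followed CLSI broth microdilution in cation-adjusted Mueller-Hinton II broth plus 0.002% Polysorbate 80, with roughly 10^6 CFU/mL.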

[3] = test system: Klebsiella pneumoniae SSI #3010; settings: SSI #3010
Summary of the method: as §1

[4] = test system: Klebsiella pneumoniae 968733; settings: 968733
Escherichia coli 926415 = settings: 926415
[5] = test system: Escherichia coli ATCC 25922; settings: ATCC 25922
Summary of the method: as §1

[6] = test system: Pseudomonas aeruginosa ATCC 27853; settings: ATCC 27853
Summary of the method: as §1

[7] = test system: human red blood cells (hRBC); assay: Hemolysis of human red blood cells; settings: red cells of human, 1 h, 100 μg/mL
Summary of the method: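 Washed fresh human erythrocytes (20% v/v, ~0.9×10^9 cells/mL final) were incubated with peptides at 100 μg/mL for 1 h at 37 °C with shaking. Supernatant OD540 measured; hemolysis expressed as % of 2.5% Triton X-100 lysis, with PBS/0.001% acetic acid as 0%.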

Row | Structure (SMILES) | Acinetobacter baumannii 872842 MIC [1] | Acinetobacter baumannii DSM 30008 MIC [2] | Klebsiella pneumoniae SSI #3010 MIC [3] | Klebsiella pneumoniae 968733 MIC [4] | Escherichia coli 926415 MIC (Escherichia coli 926415) | Escherichia coli ATCC 25922 MIC [5] | Pseudomonas aeruginosa ATCC 27853 MIC [6] | Hemolysis at 100 μg/mL [7]
1 | CC(=O)N[C@@H](Cc1c[nH]c2ccccc12)C(=O)N[C@H]1CSSC[C@@H](C(=O)N[C@@H](CCCN)C(=O)N[C@H](C(=O)N[C@@H](CCN)C(=O)N[C@@H](CCN)C(=O)N[C@H]2CCNC(=O)[C@H]([C@@H](C)O)NC(=O)[C@H](CCN)NC(=O)[C@H](CCN)NC(=O)[C@H](CC(C)C)NC(=O)[C@@H](Cc3ccccc3)NC(=O)[C@H](CCN)NC2=O)[C@@H](C)O)NC(=O)[C@H](Cc2ccc(O)cc2)NC(=O)[C@H](CO)NC(=O)[C@H](CC(C)C)NC(=O)[C@@H]2CCCN2C(=O)[C@H]2CCCN2C(=O)[C@H](CN)NC(=O)[C@H](C)NC(=O)[C@H](C(C)(C)C)NC1=O [Ex. 142] (Ac-WC[Tle]A[Dap][dP]PLSYC[Orn]T[Dab][Dab][Dab][Dab][dF]L[Dab][Dab]T; disulfide 2-11; lactam 16-C) | 0.125 µg/mL | 0.25 µg/mL | 0.5 µg/mL | 1 µg/mL | 0.25 µg/mL | 0.5 µg/mL | 0.25 µg/mL | <1%
2 | CN[C@@H](Cc1c[nH]c2ccccc12)C(=O)N[C@H]1CSSC[C@@H](C(=O)N(C)CC(=O)N[C@@H](CCN)C(=O)N[C@H](C(=O)N[C@@H](CCN)C(=O)N[C@H]2CCNC(=O)[C@H]([C@@H](C)O)NC(=O)[C@H](CCN)NC(=O)[C@H](CCN)NC(=O)[C@H](CC(C)C)NC(=O)[C@@H](CC(C)C)NC(=O)[C@H](CCN)NC2=O)[C@@H](C)O)NC(=O)[C@H](Cc2ccc(O)cc2)NC(=O)[C@H](CN)NC(=O)[C@H](CC(C)C)NC(=O)[C@@H]2CCCN2C(=O)[C@H]2CCCN2C(=O)[C@H](Cc2ccc(O)cc2)NC(=O)[C@H](C)NC(=O)[C@H](C(C)C)NC1=O [Ex. 143] (H-[NMeW]CVAY[dP]PL[Dap]YC[Sar][Dab]T[Dab][Dab][Dab][dL]L[Dab][Dab]T; disulfide 2-11; lactam 16-C) | 0.0625 µg/mL | 0.0625 µg/mL | 0.125 µg/mL | 0.125 µg/mL | 0.0625 µg/mL | 0.03125 µg/mL | 0.25 µg/mL | <1%
3 | CC(=O)N[C@@H](Cc1c[nH]c2ccccc12)C(=O)N[C@H]1CSSC[C@@H](C(=O)N[C@@H](CCCN)C(=O)N[C@H](C(=O)N[C@@H](CCN)C(=O)N[C@@H](CCN)C(=O)N[C@H]2CCNC(=O)[C@H]([C@@H](C)O)NC(=O)[C@H](CCN)NC(=O)[C@H](CCN)NC(=O)[C@H](CC(C)C)NC(=O)[C@@H](Cc3ccccc3)NC(=O)[C@H](CCN)NC2=O)[C@@H](C)O)NC(=O)[C@H](Cc2ccc(O)cc2)NC(=O)[C@H](CO)NC(=O)[C@H]([C@@H](C)O)NC(=O)[C@@H]2CCCN2C(=O)[C@H]2CCCN2C(=O)[C@H](Cc2ccc(O)cc2)NC(=O)[C@H](C)NC(=O)[C@H](C(C)(C)C)NC1=O [Ex. 144] (Ac-WC[Tle]AY[dP]PTSYC[Orn]T[Dab][Dab][Dab][Dab][dF]L[Dab][Dab]T; disulfide 2-11; lactam 16-C) | 0.25 µg/mL | 0.125 µg/mL | 0.25 µg/mL | 1 µg/mL | 0.5 µg/mL | 0.25 µg/mL | 0.25 µg/mL | 4%
4 | CC(C)C[C@@H]1NC(=O)[C@@H](NC(=O)[C@@H](N)Cc2c[nH]c3ccccc23)CSSC[C@@H](C(=O)NCC(=O)N[C@@H](CCN)C(=O)N[C@H](C(=O)N[C@@H](CCN)C(=O)N[C@H]2CCNC(=O)[C@H]([C@@H](C)O)NC(=O)[C@H](CCN)NC(=O)[C@H](CCN)NC(=O)[C@H](CC(C)C)NC(=O)[C@@H](CC(C)C)NC(=O)[C@H](CCN)NC2=O)[C@@H](C)O)NC(=O)[C@H](CC(C)C)NC(=O)[C@H](CO)NC(=O)[C@H](Cc2ccc(O)cc2)NC(=O)[C@@H]2CCCN2C(=O)[C@H]2CCCN2C(=O)[C@H]([C@@H](C)O)NC(=O)[C@H](C)NC1=O [Ex. 145] (H-WCLAT[dP]PYSLCG[Dab]T[Dab][Dab][Dab][dL]L[Dab][Dab]T; disulfide 2-11; lactam 16-C) | 0.0625 µg/mL | 0.03125 µg/mL | 0.0625 µg/mL | 0.5 µg/mL | 0.125 µg/mL | 0.0625 µg/mL | 0.5 µg/mL | 3%
5 | CC(=O)N[C@@H](Cc1c[nH]c2ccccc12)C(=O)N[C@H]1CSSC[C@@H](C(=O)N[C@@H](CCCN)C(=O)N[C@H](C(=O)N[C@@H](CCN)C(=O)N[C@@H](CCN)C(=O)N[C@H]2CCNC(=O)[C@H]([C@@H](C)O)NC(=O)[C@H](CCN)NC(=O)[C@H](CCN)NC(=O)[C@H](CC(C)C)NC(=O)[C@@H](Cc3ccccc3)NC(=O)[C@H](CCN)NC2=O)[C@@H](C)O)NC(=O)[C@H](Cc2ccc(O)cc2)NC(=O)[C@H](CC(=O)O)NC(=O)[C@H](CC(C)C)NC(=O)[C@@H]2CCCN2C(=O)[C@H]2CCCN2C(=O)[C@H](CO)NC(=O)[C@H](Cc2ccc(O)cc2)NC(=O)[C@H](C(C)(C)C)NC1=O [Ex. 146] (Ac-WC[Tle]YS[dP]PLDYC[Orn]T[Dab][Dab][Dab][Dab][dF]L[Dab][Dab]T; disulfide 2-11; lactam 16-C) | 1 µg/mL | 0.125 µg/mL | 0.25 µg/mL | 4 µg/mL | 4 µg/mL | 0.25 µg/mL | 0.5 µg/mL | 3%
6 | CCCC[C@@H]1NC(=O)[C@@H]2CCCN2C(=O)[C@H]2CCCN2C(=O)[C@H](CO)NC(=O)[C@H](CO)NC(=O)[C@H](C(C)(C)C)NC(=O)[C@@H](NC(=O)[C@@H](N)Cc2c[nH]c3ccccc23)CSSC[C@@H](C(=O)N(C)CC(=O)N[C@@H](CCN)C(=O)N[C@H](C(=O)N[C@@H](CCN)C(=O)N[C@H]2CCNC(=O)[C@H]([C@@H](C)O)NC(=O)[C@H](CCN)NC(=O)[C@H](CCN)NC(=O)[C@H](CC(C)C)NC(=O)[C@@H](CC(C)C)NC(=O)[C@H](CCN)NC2=O)[C@@H](C)O)NC(=O)[C@H](Cc2ccc(O)cc2)NC(=O)[C@H](CN)NC1=O [Ex. 147] (H-WC[Tle]SS[dP]P[Nle][Dap]YC[Sar][Dab]T[Dab][Dab][Dab][dL]L[Dab][Dab]T; disulfide 2-11; lactam 16-C) | 0.0625 µg/mL | 0.03125 µg/mL | 0.0625 µg/mL | 0.5 µg/mL | 0.0625 µg/mL | 0.0625 µg/mL | 1 µg/mL | <1%
7 | CC(C)C[C@@H]1NC(=O)[C@@H](CC(C)C)NC(=O)[C@H](CCN)NC(=O)[C@@H](NC(=O)[C@H](CCN)NC(=O)[C@H](CCN)NC(=O)[C@@H](CCN)NC(=O)[C@H](CCCN)NC(=O)[C@@H]2CSSC[C@H](NC(=O)[C@@H](N)Cc3c[nH]c4ccccc34)C(=O)N[C@@H](C(C)C)C(=O)N[C@@H](CO)C(=O)N[C@@H](CO)C(=O)N3CCC[C@@H]3C(=O)N3CCC[C@H]3C(=O)N[C@@H](C(C)C)C(=O)N[C@@H](CN)C(=O)N[C@@H](Cc3ccc(O)cc3)C(=O)N2)CCNC(=O)[C@H]([C@@H](C)O)NC(=O)[C@H](CCN)NC(=O)[C@H](CCN)NC1=O [Ex. 148] (H-WCVSS[dP]PV[Dap]YC[Orn][dDab][Dab][Dab][Dab][Dab][dL]L[Dab][Dab]T; disulfide 2-11; lactam 16-C) | 0.25 µg/mL | 0.5 µg/mL | 1 µg/mL | 4 µg/mL | 0.5 µg/mL | 0.25 µg/mL | 0.125 µg/mL | <1%
